Measured values from patent US20160045505A1, “COMPOUNDS AND COMPOSITIONS FOR THE TREATMENT OF PARASITIC DISEASES” (NOVARTIS AG, priority 2013, published 2016).
Where two headings read alike, the source gives them in different places.

Columns and labels:
[1] = patients injected with Melarsoprol (Arsobal); cited from earlier work
[2] = test system: Trypanosoma cruzi amastigotes (Tulahuen strain expressing Lac-Z) cultured in 3T3 fibroblast cells; assay: microbe, parasite or virus in culture; assay type: cell-based; conditions: Trypanosoma cruzi, TULAHUEN, Fibroblast, T. cruzi amastigotes in 3T3 fibroblast cells, read-out: T cruzi EC50
[3] = test system: Leishmania donovani axenic amastigote parasites; assay: Leishmania donovani axenic amastigote proliferation assay (Cell TiterGlo luminescence, 2 day incubation); assay type: cell-based; conditions: Leishmania donovani, read-out: L. donovani amastigotes EC50
[4] = test system: L. donovani HU3 strain in mouse peritoneal macrophages; assay: Assay for proliferation of Leishmania parasites in infected mouse peritoneal macrophages (SybrGreen staining, high-content imaging, 5 days); assay type: cell-based, Leishmania donovani; conditions: Leishmania donovani, Peritoneal macrophage, L. donovani in mouse peritoneal macrophages, read-out: L. donovani Macrophage EC50
[5] = test system: Trypanosoma brucei Lister 427 strain, bloodstream form; assay: Assay for proliferation of kinetoplastid parasite Trypanosoma brucei (Cell Titer Glo, 48 hours); assay type: cell-based; conditions: Trypanosoma brucei, read-out: T. brucei EC50
In short: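 Bloodstream-form T. brucei Lister 427 in HMI-9 medium was exposed to compound (DMSO vehicle) for 48 hours at 37° C, 5% CO2. Parasite growth was read as ATP by CellTiter-Glo luminescence, with EC50 calculated from percent inhibition.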

[6] = T. brucei Lister 427 bloodstream form
[7] = axenic amastigotes, inhibition of proliferation
[8] = T. brucei Lister 427 bloodstream form, inhibition of proliferation

SMILES | patients who developed reactive encephalopathy (convulsions, progressive coma, or psychotic reactions) [1] | reactive encephalopathy cases that result in death [1] | EC50 [2] [nM] | EC50 ([3]; L. donovani axenic amastigotes) [nM] | EC50 [4] [nM] | EC50 [5, 6] [nM] | EC50 ([2]; inhibition of proliferation) [nM] | EC50 [3, 7] [nM] | EC50 ([4]; inhibition of proliferation) [nM] | EC50 [5] [nM] | EC50 [5, 8] [nM]
Nc1nc(N)nc(Nc2ccc([As]3SCC(CO)S3)cc2)n1 (stereo not drawn) [Melarsoprol] | 3-10 % of patients | 10-70 % of such cases |  |  |  |  |  |  |  |  | 
O=C(Nc1ccc(F)c(-c2cn3cc(-c4ccccn4)cnc3n2)c1)N1CC[C@@H](F)C1 [Compound 407] |  |  | 14 | 9 | 14 | 4 |  |  |  |  | 
O=C(Nc1ccc(F)c(-c2cn3cc(-c4cccnc4)cnc3n2)c1)N1CC[C@@H](F)C1 [Compound 408] |  |  | 237 | 78 | 246 | 18 |  |  |  |  | 
O=C(Nc1ccc(F)c(-c2cn3cc(-c4ccccn4)cnc3n2)c1)N1CC(F)(F)C1 [Compound 296, 3,3-difluoro-N-(4-fluoro-3-(6-(pyridin-2-yl)imidazo[1,2-a]pyrimidin-2-yl)phenyl)azetidine-1-carboxamide] |  |  |  |  |  |  | 14 | 4 | 13 | 12 | 
O=C(Nc1cnc2nc(-c3cc(NC(=O)N4CCCC4)ccc3F)cn2c1)[C@@H]1CNCCO1 [Compound 130] |  |  |  |  |  |  | 7120 | 13900 | 26600 |  | 4660
CC(C)(C)OC(=O)N[C@H]1CC[C@H](CNc2cnc3nc(-c4cc(NC(=O)N5CCCC5)ccc4F)cn3c2)CC1 [Compound 477] |  |  | 386 | 751 | 425 | 55 |  |  |  |  | 
Cc1nc(C)c(C(=O)Nc2ccc(F)c(-c3cn4cc(NC(=O)[C@@H]5[C@@H]6CCC(O6)[C@@H]5N)cnc4n3)c2)o1 [Compound 157] |  |  |  |  |  |  | > 20000 | > 25000 | > 50000 |  | 31300
CC(C)OC(=O)Nc1cnc2nc(-c3cc(NC(=O)c4c[nH]cn4)ccc3F)cn2c1 [Compound 81] |  |  |  |  |  |  | > 20000 | > 25000 | > 50000 |  | > 50000
Cc1cccc(-c2cnc3nc(-c4cc(NC(=O)N5CCCC5)ccc4F)cn3c2)n1 [Compound 455, N-(4-fluoro-3-(6-(6-methylpyridin-2-yl)imidazo[1,2-a]pyrimidin-2-yl)phenyl)pyrrolidine-1-carboxamide] |  |  | 215 | 225 | 681 | 134 |  |  |  |  | 
CC(C)OC(=O)Nc1cnc2nc(-c3cc(NC(=O)c4nccn4C)ccc3F)cn2c1 [Compound 97] |  |  |  |  |  |  | 10500 | 12000 | 18200 |  | 13200
CC(C)OC(=O)Nc1cnc2nc(-c3cc(NC(=O)N(C(C)C)C(C)C)ccc3F)cn2c1 [Compound 228] |  |  |  |  |  |  | 9990 | > 25000 | 19500 |  | 34500
CC(C)OC(=O)Nc1cnc2nc(-c3cc(-n4cn[nH]c4=O)ccc3Cl)cn2c1 [Compound 535] |  |  | > 20000 | > 25000 | > 35500 | 31100 |  |  |  |  | 
Cc1ncc(C(=O)Nc2ccc(F)c(-c3cn4cc(C(F)F)cnc4n3)c2)o1 [Compound 209] |  |  |  |  |  |  | 130 | 87 | 317 |  | 169
Cc1nc(C)c(C(=O)Nc2ccc(F)c(-c3cn4cc(-c5ccc(CCN(C)C)cc5)cnc4n3)c2)o1 [Compound 450] |  |  | 397 | 4620 | 2990 | 499 |  |  |  |  | 
